According to patent publication US7276484B2, “Dipeptide inhibitors of β-secretase” (Elan Pharmaceuticals, Inc., priority 1999, dated 2007):
Numbered stars: 1 amine (or outer) side, 2 acyl side, 3 side chain; on linkers, the order of the positions; unused ones are H or OH. Square brackets hold non-standard residues; d marks the D form. Ends that are not written are not given here. Peptide text beside a SMILES is read from it. * marks the point of attachment. 3,5‑difluoroPhe/Sta = 3,5-difluorobenzyl statine, O=C(C[C@H](O)[C@H](Cc1cc(F)cc(F)c1)N[*:1])[*:2]; Sta = CC(C)C[C@H](N)[C@@H](O)CC(=O)O; Isovaleryl = CC(C)CC(=O)*

How the values were obtained:
Human brain β-Secretase [1] = biological target: T1, Human brain β-Secretase (Homo sapiens, UniProt P56817); assay: MBP-C125 enzyme inhibition assay (ELISA detection of β-secretase cleavage of MBP-C125 substrate); format: biochemical; conditions: pH 4.5, 37° C., 90 minutes, read-out: IC50 Grouping
T1 construct: Human brain β-Secretase from concentrated HiQ pool prepared Jul; from tissue; host or cells: human brain
Procedure: The inhibitory concentration data was obtained by use of the MBP-C125 assay, which determines the relative inhibition of β-secretase cleavage of an MPB-C125 substrate by the compounds assayed. Human brain β-Secretase from concentrated HiQ pool prepared Jul.
Inhibition data was obtained from an ELISA which uses an anti-MBP capture antibody (on precoated and blocked 96-well high binding plates) followed by incubation with diluted enzyme reaction supernatant, incubation with an anti-SW192 specific biotinylated reporter antibody and incubation with streptavidin/alkaline phosphatase. Detection was effected by a fluorescent substrate signal on cleavage by the phosphatase.
Compounds were diluted in a 1:1 dilution series to a six-point concentration curve (two wells per concentration) which took up one 96-plate row per compound tested.
Each of the test compounds was weighed out into a vial and DMSO was added to make up a 10 mM solution. To obtain a final compound concentration of 200 μM at the high point of a 6-point dilution curve, 100 μL of the 10 mM solution was added to well C1 of a 96-well V-bottom plate. Fifty μL of DMSO was added to odd wells of row C across the plate and 1:1 serial dilutions were made. 10 μL of each dilution was added to each of two wells on row C of a corresponding V-bottom plate to which 190 μL of 52 mM NaOAc/7.9% DMSO, pH 4.5 were pre-added. […] The compound concentration in the final enzyme reaction was thus 50 times less than the starting concentration. The final reaction mixture of 200 μM compound for the highest curve point was in 5% DMSO, 20 mM NaAc, 0.06% TX100, at pH 4.5. The enzyme reaction was started by warming the plates to 37° C. After 90 minutes at 37° C., 200 μL/well cold specimen diluent was added to stop the reaction and 20 μL/well was transferred to a corresponding α-MBP coated ELISA plate, containing 80 μL/well specimen diluent. […] The signal was read on a fluorescent plate reader.

β-secretase = β-secretase (Homo sapiens, UniProt P56817); assay: assays with β-secretase (pepstatin remark); format: biochemical
Human brain β-Secretase [2] = biological target: Human brain β-Secretase (human, UniProt P56817 46-501, limits assumed); assay: cell-based or functional assay
Human brain β-Secretase (human, UniProt P56817 46-501, limits assumed), sequence (P56817 46-501 limits assumed): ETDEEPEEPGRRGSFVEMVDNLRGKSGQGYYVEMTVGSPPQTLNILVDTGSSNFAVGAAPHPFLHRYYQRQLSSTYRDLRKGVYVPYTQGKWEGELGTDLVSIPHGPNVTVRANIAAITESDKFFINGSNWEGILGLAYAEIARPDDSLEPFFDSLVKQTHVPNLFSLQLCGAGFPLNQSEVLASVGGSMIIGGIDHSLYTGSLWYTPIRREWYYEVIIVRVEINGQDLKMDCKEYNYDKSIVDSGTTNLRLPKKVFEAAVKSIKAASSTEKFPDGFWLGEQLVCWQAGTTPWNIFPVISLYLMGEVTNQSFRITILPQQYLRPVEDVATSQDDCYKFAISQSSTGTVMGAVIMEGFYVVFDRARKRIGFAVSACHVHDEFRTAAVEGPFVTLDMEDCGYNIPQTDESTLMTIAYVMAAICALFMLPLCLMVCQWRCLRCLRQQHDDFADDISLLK

T1 sequence (P56817 46-501): as the sequence (P56817 46-501 limits assumed) above
β-secretase, sequence (P56817 46-501): as the sequence (P56817 46-501 limits assumed) above

Row | IC50 (Human brain β-Secretase [1]) | Molecule | also measured
1 | < 10 µM | 2-carboxy-diphenylether coupled with the peptide 3,5-difluoroPhe/Sta-Val-Ala-Glu-Phe [Example 29] | –
2 | < 10 µM | COC(=O)c1cccc(C(=O)N[C@@H](Cc2cc(F)cc(F)c2)[C@@H](O)CC(=O)N[C@H](C(=O)NC2CC(C(=O)O)C[C@H](C(=O)O)C2)C(C)C)c1 (some centres unmarked) [Example 39] | –
3 | 10 to 99 µM | geminal dimethyl glutaric dimethylamide group coupled to the derivatized Sta-Val-Ala-Glu-Phe pentapeptide [Example 32] | –

Second part, the molecule before the results:

Row | Molecule | IC50 (Human brain β-Secretase [1]) | also measured
4 | 4-carboxycinnoline coupled to the 3,5-difluoroPhe/Sta-Val-Ala-Glu-Phe [Example 44] | 10 to 99 µM | –
5 | CCCN(CCC)C(=O)c1cccc(CNC(Cc2cc(F)cc(F)c2)C(O)CC(=O)NC(C(=O)NC2CC(C(=O)O)CC(C(=O)O)C2)C(C)C)c1 (stereo not drawn) [Example 54, 3-N,N-di-n-propyl-carboxamidobenzyl-difluorophenylstatine-Val-1-amino-3,5-cis,cis-cyclohexyldicarboxylic acid] | < 10 µM | –
6 | CC(C)CC(=O)N[C@H](C(=O)N[C@H](C(=O)N[C@@H](CC(C)C)[C@@H](O)CC(=O)N[C@@H](C)C(=O)N[C@@H](CC(C)C)[C@@H](O)CC(=O)O)C(C)C)C(C)C [pepstatin] (Isovaleryl-VV[Sta]A[Sta]-OH) | – | inhibitory activity in assays with β-secretase (β-secretase): no inhibitory activity
7 | glutaric acid piperidine amide coupled with the derivatized Sta-Val-Ala-Glu-Phe pentapeptide [Example 33] | 10 to 99 µM | –
8 | {2‑carboxy‑diphenylether}-[3,5‑difluoroPhe/Sta]VAEF [Example 29: 2-carboxy-diphenylether coupled with the peptide 3,5-difluoroPhe/Sta-Val-Ala-Glu-Phe] | – | IC50 Grouping (MBP-C125 enzyme inhibition assay, ELISA read-out) (Human brain β-Secretase [2]): < 10 µM
